From patent US12538924B2, “Pesticidally active heterocyclic derivatives with sulfur containing substituents” (SYNGENTA CROP PROTECTION AG, priority 2019, dated 2026)

Columns and labels:
Format in all cases: in vivo
[1] = system: Nilaparvata lugens (Brown Plant Hopper); assay: Nilaparvata lugens (Brown Plant Hopper): Igr, Feeding/Contact; conditions: 360 h, application rate of 50 ppm, sprayed rice plants, N3 nymphs, assessed for effect on F1 generation 15 days after the treatment
Experimental: Example B11: Nilaparvata lugens (Brown Plant Hopper): Igr, Feeding/Contact
Rice plants were treated with the diluted test solutions in a spray chamber. After drying plants were infested with ˜20 N3 nymphs. 7 days after treatment adults were removed and 15 days after the treatment samples were assessed for effect on F1 generation.

[2] = system: Myzus persicae (Green Peach Aphid); assay: Myzus persicae (Green Peach Aphid): Feeding/Contact Activity; conditions: foliar, 144 h, application rate of 200 ppm, aphid population of mixed ages on sprayed sunflower leaf discs, 6 days after infestation
Experimental: Example B6: Myzus persicae (Green Peach Aphid): Feeding/Contact Activity
Sunflower leaf discs were placed onto agar in a 24-well microtiter plate and sprayed with aqueous test solutions prepared from 10'000 ppm DMSO stock solutions. After drying, the leaf discs were infested with an aphid population of mixed ages. The samples were assessed for mortality 6 days after infestation.

[3] = system: Frankliniella occidentalis (Western Flower Thrips); assay: Frankliniella occidentalis (Western Flower Thrips): Feeding/Contact Activity; conditions: foliar, 168 h, application rate of 200 ppm, population of mixed ages on sprayed sunflower leaf discs, 7 days after infestation
Experimental: Example B4: Frankliniella occidentalis (Western Flower Thrips): Feeding/Contact Activity
Sunflower leaf discs were placed on agar in 24-well microtiter plates and sprayed with aqueous test solutions prepared from 10'000 DMSO stock solutions. After drying the leaf discs were infested with a Frankliniella population of mixed ages. The samples were assessed for mortality 7 days after infestation.

[4] = system: Plutella xylostella (Diamond Back Moth); assay: Plutella xylostella (Diamond Back Moth), treated artificial diet; conditions: 192 h, application rate of 200 ppm, eggs on treated artificial diet, 8 days after infestation, read-out: effect in at least one of the two categories (mortality or growth inhibition)
Experimental: Example B5: Plutella xylostella (Diamond Back Moth)
24-well microtiter plates with artificial diet were treated with aqueous test solutions prepared from 10'000 ppm DMSO stock solutions by pipetting. After drying, Plutella eggs were pipetted through a plastic stencil onto a gel blotting paper and the plate was closed with it. The samples were assessed for mortality and growth inhibition in comparison to untreated samples 8 days after infestation.

[5] = system: Myzus persicae (Green Peach Aphid); assay: Myzus persicae (Green Peach Aphid): Systemic Activity; conditions: 144 h, test rate of 24 ppm, roots of infested pea seedlings placed into test solutions, 6 days
Experimental: Example B7: Myzus persicae (Green Peach Aphid): Systemic Activity
Roots of pea seedlings infested with an aphid population of mixed ages were placed directly into aqueous test solutions prepared from 10'000 DMSO stock solutions. The samples were assessed for mortality 6 days after placing seedlings into test solutions.

[6] = system: Diabrotica Balteata (Corn Root Worm); assay: Diabrotica balteata (Corn Root Worm), sprayed maize sprouts; conditions: 96 h, application rate of 200 ppm, L2 larvae on sprayed maize sprouts, 4 days after infestation, read-out: effect in at least one of the two categories (mortality or growth inhibition)
Experimental: Example B2: Diabrotica Balteata (Corn Root Worm)
Maize sprouts placed onto an agar layer in 24-well microtiter plates were treated with aqueous test solutions prepared from 10'000 ppm DMSO stock solutions by spraying. After drying, the plates were infested with L2 larvae (6 to 10 per well). The samples were assessed for mortality and growth inhibition in comparison to untreated samples 4 days after infestation.

[7] = system: Bemisia tabaci (Cotton White Fly); assay: Bemisia tabaci (Cotton White Fly): Feeding/Contact Activity; conditions: foliar, 144 h, application rate of 200 ppm, adult white flies on sprayed cotton leaf discs, 6 days after incubation
Experimental: Example B1: Bemisia tabaci (Cotton White Fly): Feeding/Contact Activity
Cotton leaf discs were placed on agar in 24-well microtiter plates and sprayed with aqueous test solutions prepared from 10'000 ppm DMSO stock solutions. After drying the leaf discs were infested with adult white flies. The samples were checked for mortality 6 days after incubation.

[8] = system: Nilaparvata lugens (Brown Plant Hopper); assay: Nilaparvata lugens (Brown Plant Hopper): Larvicide, Systemic into Water; conditions: 168 h, test rate of 12.5 ppm, rice plants in nutritive solution, N3 nymphs, 7 days after infestation
Experimental: Example B12: Nilaparvata lugens (Brown Plant Hopper): Larvicide, Systemic into Water
Rice plants cultivated in a nutritive solution were treated with the diluted test solutions into nourishing cultivation system. 1 day after application plants were infested with ˜20 N3 nymphs. 7 days after infestation samples were assessed for mortality and growth regulation.

[9] = system: Spodoptera littoralis (Egyptian Cotton Leaf Worm); assay: Spodoptera littoralis (Egyptian Cotton Leaf Worm), sprayed cotton leaf discs; conditions: foliar, 72 h, application rate of 200 ppm, L1 larvae on sprayed cotton leaf discs, 3 days after infestation, read-out: control (mortality, anti-feeding effect or growth inhibition)
Experimental: Example B8: Spodoptera littoralis (Egyptian Cotton Leaf Worm)
Cotton leaf discs were placed onto agar in 24-well microtiter plates and sprayed with aqueous test solutions prepared from 10'000 ppm DMSO stock solutions. After drying the leaf discs were infested with five L1 larvae. The samples were assessed for mortality, anti-feeding effect, and growth inhibition in comparison to untreated samples 3 days after infestation. Control of Spodoptera littoralis by a test sample is given when at least one of the categories mortality, anti-feedant effect, and growth inhibition is higher than the untreated sample.

[10] = system: Nilaparvata lugens (Brown Plant Hopper); assay: Nilaparvata lugens (Brown Plant Hopper): Larvicide, Feeding/Contact; conditions: 168 h, application rate of 50 ppm, N3 nymphs on sprayed rice plants, 7 days after the treatment
Experimental: Example B10: Nilaparvata lugens (Brown Plant Hopper): Larvicide, Feeding/Contact
Rice plants were treated with the diluted test solutions in a spray chamber. After drying plants were infested with ˜20 N3 nymphs. 7 days after the treatment samples were assessed for mortality and growth regulation.

[11] = system: Euschistus heros (Neotropical Brown Stink Bug); assay: Euschistus heros (Neotropical Brown Stink Bug), sprayed soybean leaves; conditions: 120 h, application rate of 200 ppm, N2 nymphs on sprayed soybean leaves, 5 days after infestation, read-out: effect in at least one of the two categories (mortality or growth inhibition)
Experimental: Example B3: Euschistus heros (Neotropical Brown Stink Bug)
Soybean leaves on agar in 24-well microtiter plates were sprayed with aqueous test solutions prepared from 10'000 ppm DMSO stock solutions. After drying the leaves were infested with N2 nymphs. The samples were assessed for mortality and growth inhibition in comparison to untreated samples 5 days after infestation.

[12] = system: Tetranychus urticae (Two-Spotted Spider Mite); assay: Tetranychus urticae (Two-Spotted Spider Mite): Feeding/Contact Activity; conditions: foliar, 192 h
Experimental: Example B9: Tetranychus urticae (Two-Spotted Spider Mite): Feeding/Contact Activity
Bean leaf discs on agar in 24-well microtiter plates were sprayed with aqueous test solutions prepared from 10'000 ppm DMSO stock solutions. After drying the leaf discs were infested with a mite population of mixed ages. The samples were assessed for mortality on mixed population (mobile stages) 8 days after infestation.

CCS(=O)(=O)c1cc(C2(C#N)CC2)cnc1N1Cc2cnc(C(F)(F)F)cc2C1=O [Compound P8, 1-[5-ethylsulfonyl-6-[1-oxo-6-(trifluoromethyl)-3H-pyrrolo[3,4-c]pyridin-2-yl]-3-pyridyl]cyclopropanecarbonitrile]
≥ 80%: mortality at 50 ppm [1] | mortality at 200 ppm [2] | mortality at 200 ppm [3] | percent effect (mortality or growth inhibition) at 200 ppm [4] | mortality at 24 ppm [5] | percent effect (mortality or growth inhibition) at 200 ppm [6] | mortality at 200 ppm [7] | mortality at 12.5 ppm [8] | percent control (mortality, anti-feedant effect or growth inhibition) at 200 ppm [9] | mortality at 50 ppm [10] | percent effect (mortality or growth inhibition) at 200 ppm [11]

CCS(=O)(=O)c1cc(N(C)C(C)=O)cnc1N1Cc2cnc(C(F)(F)F)cc2C1=O [Compound P3, N-[5-ethylsulfonyl-6-[1-oxo-6-(trifluoromethyl)-3H-pyrrolo[3,4-c]pyridin-2-yl]-3-pyridyl]-N-methyl-acetamide]
≥ 80%: mortality at 50 ppm [1] | mortality at 200 ppm [2] | mortality at 200 ppm [3] | percent effect (mortality or growth inhibition) at 200 ppm [4] | mortality at 24 ppm [5] | percent effect (mortality or growth inhibition) at 200 ppm [6] | mortality at 12.5 ppm [8] | percent control (mortality, anti-feedant effect or growth inhibition) at 200 ppm [9] | mortality at 50 ppm [10] | percent effect (mortality or growth inhibition) at 200 ppm [11]

N#CC1(c2cnc(N3Cc4cnc(C(F)(F)F)cc4C3=O)c(S(=O)(=O)CC3CC3)c2)CC1 [Compound P28, 1-[5-(cyclopropylmethylsulfonyl)-6-[1-oxo-6-(trifluoromethyl)-3H-pyrrolo[3,4-c]pyridin-2-yl]-3-pyridyl]cyclopropanecarbonitrile]
≥ 80%: mortality at 200 ppm [2] | percent effect (mortality or growth inhibition) at 200 ppm [4] | percent effect (mortality or growth inhibition) at 200 ppm [6] | mortality at 200 ppm [7] | mortality at 200 ppm [12] | percent control (mortality, anti-feedant effect or growth inhibition) at 200 ppm [9] | percent effect (mortality or growth inhibition) at 200 ppm [11]
